Source: PMC5520216, “Frutapin, a lectin from Artocarpus incisa (breadfruit): cloning, expression and molecular insights” (Bioscience Reports, 2017)

Experiments:
[1] = biological target: T1, Frutapin (FTP), recombinant (Artocarpus altilis, UniProt A0A2D0TC52); assay: X-ray co-crystal structure, […] Å; settings: co-crystallised with 100 mM glucose, glycerol removed; carbohydrate-binding site of all four monomers
T1 construct: full-length FTP (450 bp clone from leaf cDNA, codon-optimised ORF), pET SUMO in E. coli BL21, His-SUMO tag cut off with ULP1
T1 sequence (A0A2D0TC52 entry or part of it): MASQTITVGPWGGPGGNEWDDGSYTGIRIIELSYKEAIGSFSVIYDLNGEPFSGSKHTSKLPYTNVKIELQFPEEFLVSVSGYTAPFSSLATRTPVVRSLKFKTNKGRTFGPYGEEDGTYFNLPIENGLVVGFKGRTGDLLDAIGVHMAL

[2] = biological target: Frutapin (FTP), recombinant, mannose-binding lectin from Artocarpus incisa (breadfruit) (Artocarpus incisa (breadfruit)); assay: native gel or EMSA; native gel electrophoresis of purified FTP after removal of the SUMO tag; size from a plot of Rf against log10 (MWt)
[3] = biological target: T1, Frutapin (FTP), recombinant; assay: inhibition of haemagglutination of red blood cells, double serial dilution; format: cell-based; settings: 37 °C, 1 h, visual read-out, carbohydrate-binding site
[4] = biological target: T1, Frutapin (FTP), recombinant; assay: X-ray co-crystal structure, […] Å; settings: co-crystallised with 20 mM mannose, glycerol removed; carbohydrate-binding site of all four monomers

OC[C@H]1O[C@H](O)[C@H](O)[C@@H](O)[C@@H]1O [α-D-glucose]
X-ray co-crystal structure, 1.60 Å [1]: FTP was also co-crystallized with mannose and glucose

Frutapin (FTP), recombinant, mannose-binding lectin from Artocarpus incisa (breadfruit) (natural protein)
stoichiometry N [2]: 4

OC[C@H]1OC(O)[C@H](O)[C@@H](O)[C@@H]1O (some centres unmarked) [glucose]
inhibitory sugar concentration ([3]; 42.8 µg/ml FTP): 100 mM

OC[C@H]1OC(O)[C@@H](O)[C@@H](O)[C@@H]1O (some centres unmarked) [mannose]
inhibitory sugar concentration ([3]; 12.4 µg/ml FTP): 6.25 mM

OC[C@H]1O[C@H](O)[C@@H](O)[C@@H](O)[C@@H]1O [α-D-mannose]
X-ray co-crystal structure, 1.70 Å [4]: FTP was also co-crystallized with mannose and glucose
